IC50 and Ratio data for 19 molecules are collected here from patent US11254686B1 (Corvus Pharmaceuticals, Inc., priority 2017, dated 2022).

What all share (type): biochemical
Test [1] addresses adenosine A3 receptor (Homo sapiens (Human), UniProt P0DMS8). Nature of the test: Adenosine receptor activity assay (Table 1), A3 cAMP.
The target in test [2] is adenosine A2B receptor (Homo sapiens (Human), UniProt P29275). Nature of the test: Adenosine receptor activity assay (Table 1), A2B activity. The following applies: for Ratio: A2A activity to the A2B activity, A2A/A2B; for IC50: cAMP, read-out: Ave A2B cAMP IC50.
Chain of adenosine A2B receptor (P29275 whole entry): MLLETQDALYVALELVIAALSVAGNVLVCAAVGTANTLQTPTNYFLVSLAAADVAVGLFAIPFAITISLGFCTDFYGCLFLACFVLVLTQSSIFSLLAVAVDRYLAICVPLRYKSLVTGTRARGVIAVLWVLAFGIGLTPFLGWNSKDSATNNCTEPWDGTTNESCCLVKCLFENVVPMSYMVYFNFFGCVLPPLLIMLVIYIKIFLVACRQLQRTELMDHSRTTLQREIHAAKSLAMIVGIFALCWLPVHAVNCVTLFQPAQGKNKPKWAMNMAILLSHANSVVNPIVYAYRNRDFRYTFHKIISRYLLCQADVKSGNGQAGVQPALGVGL
The target in test [3] is adenosine A2A receptor (Homo sapiens (Human), UniProt P29274). In words: Adenosine receptor activity assay (Table 1), A2A activity. The following applies: cAMP; read-out: Ave A2A cAMP IC50.
Chain of adenosine A2A receptor (P29274 whole entry): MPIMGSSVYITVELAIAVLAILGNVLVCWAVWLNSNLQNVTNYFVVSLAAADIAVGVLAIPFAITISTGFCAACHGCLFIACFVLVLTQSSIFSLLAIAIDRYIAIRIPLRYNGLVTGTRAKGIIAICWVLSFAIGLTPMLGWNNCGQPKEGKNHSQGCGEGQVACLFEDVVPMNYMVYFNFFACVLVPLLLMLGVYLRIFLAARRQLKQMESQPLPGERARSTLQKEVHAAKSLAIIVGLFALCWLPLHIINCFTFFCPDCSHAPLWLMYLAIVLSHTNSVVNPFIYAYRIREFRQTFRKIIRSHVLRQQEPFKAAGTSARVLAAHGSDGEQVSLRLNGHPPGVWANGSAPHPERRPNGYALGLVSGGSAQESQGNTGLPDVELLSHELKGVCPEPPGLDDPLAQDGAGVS
Test [4] has as its target adenosine A1 receptor (Homo sapiens (Human), UniProt P30542). In words: Adenosine receptor activity assay (Table 1), A1 cAMP.

Where only a bound is given, the exact number is not on record here.

Chain of adenosine A1 receptor (P30542 whole entry): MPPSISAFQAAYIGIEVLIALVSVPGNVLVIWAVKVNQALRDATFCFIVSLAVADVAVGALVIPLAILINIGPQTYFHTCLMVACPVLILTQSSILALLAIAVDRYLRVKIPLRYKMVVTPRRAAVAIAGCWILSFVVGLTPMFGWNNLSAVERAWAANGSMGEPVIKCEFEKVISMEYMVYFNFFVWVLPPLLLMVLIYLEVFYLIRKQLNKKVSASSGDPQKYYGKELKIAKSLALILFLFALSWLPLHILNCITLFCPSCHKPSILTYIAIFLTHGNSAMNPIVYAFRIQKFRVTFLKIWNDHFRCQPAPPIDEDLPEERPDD
Chain of adenosine A3 receptor (P0DMS8 whole entry): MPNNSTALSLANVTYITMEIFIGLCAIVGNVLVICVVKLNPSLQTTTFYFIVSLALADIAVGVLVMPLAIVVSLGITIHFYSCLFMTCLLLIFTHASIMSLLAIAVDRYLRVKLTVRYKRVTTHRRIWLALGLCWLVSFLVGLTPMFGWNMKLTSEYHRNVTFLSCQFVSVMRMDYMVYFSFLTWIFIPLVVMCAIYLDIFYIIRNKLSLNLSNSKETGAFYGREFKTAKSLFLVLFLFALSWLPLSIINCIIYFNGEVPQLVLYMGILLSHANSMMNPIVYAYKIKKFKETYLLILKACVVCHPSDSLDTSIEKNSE

The IC50 is the concentration at which inhibition is half-maximal. On to `C[C@H](Nc1nc(C(=O)N2CC[C@@H](C(=O)NOC3CCCC3)C2)c2sccc2n1)c1cncc(F)c1` [Example Z628, (R)—N-(Cyclopentyloxy)-1-(2-(((S)-1-(5-fluoropyridin-3-yl)ethyl)amino)thieno[3,2-d]pyrimidine-4-carbonyl)pyrrolidine-3-carboxamide], for which the IC50 was 100 to 500 nM in test [1], less than 10 nM in test [2], less than 10 nM in test [3] and greater than 500 nM in test [4]. In test [2], the Ratio is on record as 1.25.
For the molecule `C[C@H](Nc1nc(C(=O)N2CC(NC(=O)c3ccoc3)C2)c2sccc2n1)c1cncc(F)c1` [Example Z600, (S)—N-(1-(2-((1-(5-Fluoropyridin-3-yl)ethyl)amino)thieno[3,2-d]pyrimidine-4-carbonyl)azetidin-3-yl)furan-3-carboxamide], the IC50 is 100 to 500 nM in test [1], less than 10 nM in test [2], 10 to 50 nM in test [3] and greater than 500 nM in test [4]. Further, the Ratio in test [2] is 1.90.
For the molecule `C[C@H](Nc1nc(C(=O)N2CC(NC(=O)C3(C)CCC3)C2)c2sccc2n1)c1cncc(Cl)c1` [Example Z644, (S)—N-(1-(2-((1-(5-Chloropyridin-3-yl)ethyl)amino)thieno[3,2-d]pyrimidine-4-carbonyl)azetidin-3-yl)-1-methylcyclobutane-1-carboxamide], the IC50 was 100 to 500 nM in test [1], 10 to 50 nM in test [2], less than 10 nM in test [3] and greater than 500 nM in test [4]. In addition, in test [2], the Ratio is 0.59.
Turning to `C[C@H](Nc1nc(C(=O)N2CC(NC(=O)c3ccc(-c4ccccc4)cc3)C2)c2sccc2n1)c1cncc(F)c1` [Example Z645, (S)—N-(1-(2-((1-(5-Fluoropyridin-3-yl)ethyl)amino)thieno[3,2-d]pyrimidine-4-carbonyl)azetidin-3-yl)-[1,1′-biphenyl]-4-carboxamide], the IC50 in test [1] is 50 to 100 nM; in test [2], 50 to 100 nM; in test [3] it was 10 to 50 nM; in test [4] it was greater than 500 nM. For the same molecule, the Ratio in test [2] amounted to 0.48.
On to `Cc1csc2c(C(=O)N3CC(NC(=O)c4cccc(Cl)c4)C3)nc(N[C@@H](C)c3cncc(F)c3)nc12` [Example Z625, (S)-3-Chloro-N-(1-(2-((1-(5-fluoropyridin-3-yl)ethyl)amino)-7-methylthieno[3,2-d]pyrimidine-4-carbonyl)azetidin-3-yl)benzamide], for which the IC50 in test [1] was greater than 500 nM; in test [2] it was 10 to 50 nM; in test [3], 10 to 50 nM; in test [4] it was greater than 500 nM. The Ratio in test [2] stood at 0.68.
For the molecule `C[C@H](Nc1nc(C(=O)N2CC(NC(=O)C(C)(C)C)C2)c2sccc2n1)c1cncc(Cl)c1` [Example Z642, (S)—N-(1-(2-((1-(5-Chloropyridin-3-yl)ethyl)amino)thieno[3,2-d]pyrimidine-4-carbonyl)azetidin-3-yl)pivalamide], the IC50 is 100 to 500 nM in test [1], 10 to 50 nM in test [2], less than 10 nM in test [3] and greater than 500 nM in test [4]. The Ratio in test [2] is listed as 0.57.
In the case of `C[C@H](Nc1nc(C(=O)N2CC(NC(=O)c3ccc(Cl)cc3)C2)c2sccc2n1)c1cncc(F)c1` [Example Z617, (S)-4-Chloro-N-(1-(2-((1-(5-fluoropyridin-3-yl)ethyl)amino)thieno[3,2-d]pyrimidine-4-carbonyl)azetidin-3-yl)benzamide], the IC50 was greater than 500 nM in test [1], less than 10 nM in test [2], 10 to 50 nM in test [3] and greater than 500 nM in test [4]. Also, the Ratio in test [2] was 3.67.
`C[C@H](Nc1nc(C(=O)N2CC(NC(=O)c3ccccc3F)C2)c2sccc2n1)c1cncc(F)c1` [Example Z614, (S)-2-Fluoro-N-(1-(2-((1-(5-fluoropyridin-3-yl)ethyl)amino)thieno[3,2-d]pyrimidine-4-carbonyl)azetidin-3-yl)benzamide]: the IC50 in test [1] was 100 to 500 nM; in test [2], less than 10 nM; in test [3], less than 10 nM; in test [4] it was greater than 500 nM. For the same molecule, in test [2], the Ratio was found to be 1.76.
Consider `C[C@H](Nc1nc(C(=O)N2CC(NC(=O)C34CC(C3)C4)C2)c2sccc2n1)c1cncc(F)c1` [Example Z604, (S)—N-(1-(2-((1-(5-Fluoropyridin-3-yl)ethyl)amino)thieno[3,2-d]pyrimidine-4-carbonyl)azetidin-3-yl)bicyclo[1.1.1]pentane-1-carboxamide], for which the IC50 in test [1] is 100 to 500 nM; in test [2], less than 10 nM; in test [3], less than 10 nM; in test [4] it was greater than 500 nM. The Ratio in test [2] is on record as 0.88.
Regarding `C[C@H](Nc1nc(C(=O)N2CC(NC(=O)C3CCOCC3)C2)c2sccc2n1)c1cncc(F)c1` [Example Z622, (S)—N-(1-(2-((1-(5-Fluoropyridin-3-yl)ethyl)amino)thieno[3,2-d]pyrimidine-4-carbonyl)azetidin-3-yl)tetrahydro-2H-pyran-4-carboxamide], the IC50 in test [1] was greater than 500 nM; in test [2], 10 to 50 nM; in test [3] it was 10 to 50 nM; in test [4], greater than 500 nM. The Ratio in test [2] worked out at 1.02.
As for `C[C@H](Nc1nc(C(=O)N2CC(NC(=O)c3ccc(F)c(F)c3)C2)c2sccc2n1)c1cncc(F)c1` [Example Z616, (S)-3,4-Difluoro-N-(1-(2-((1-(5-fluoropyridin-3-yl)ethyl)amino)thieno[3,2-d]pyrimidine-4-carbonyl)azetidin-3-yl)benzamide], the IC50 is greater than 500 nM in test [1], less than 10 nM in test [2], 10 to 50 nM in test [3] and greater than 500 nM in test [4]. For the same molecule, the Ratio in test [2] turned out to be 4.32.
For the molecule `Cc1cc(C)cc(C(=O)NC2CN(C(=O)c3nc(N[C@@H](C)c4cncc(F)c4)nc4ccsc34)C2)c1` [Example Z646, (S)—N-(1-(2-((1-(5-Fluoropyridin-3-yl)ethyl)amino)thieno[3,2-d]pyrimidine-4-carbonyl)azetidin-3-yl)-3,5-dimethylbenzamide], the IC50 is 100 to 500 nM in test [1], 10 to 50 nM in test [2], 10 to 50 nM in test [3] and greater than 500 nM in test [4]. Besides, the Ratio in test [2] came out at 0.65.
Take `C[C@H](Nc1nc(C(=O)N2CC(NC(=O)Nc3ccccc3)C2)c2sccc2n1)c1cncc(F)c1` [Example Z634, (S)-1-(1-(2-((1-(5-Fluoropyridin-3-yl)ethyl)amino)thieno[3,2-d]pyrimidine-4-carbonyl)azetidin-3-yl)-3-phenylurea]: the IC50 in test [1] is 100 to 500 nM; in test [2] it was less than 10 nM; in test [3] it was 10 to 50 nM; in test [4], greater than 500 nM. Also, the Ratio in test [2] came to 2.22.
As to `C[C@H](Nc1nc(C(=O)N2CC(NC(=O)C3CCCC3)C2)c2sccc2n1)c1cncc(F)c1` [Example Z605, (S)—N-(1-(2-((1-(5-Fluoropyridin-3-yl)ethyl)amino)thieno[3,2-d]pyrimidine-4-carbonyl)azetidin-3-yl)cyclopentanecarboxamide], the IC50 in test [1] was 100 to 500 nM; in test [2], less than 10 nM; in test [3], less than 10 nM; in test [4] it was greater than 500 nM. For the same molecule, the Ratio in test [2] is on record as 0.77.
On to `C[C@H](Nc1nc(C(=O)N2CC(NC(=O)c3ccncc3)C2)c2sccc2n1)c1cncc(F)c1` [Example Z619, (S)—N-(1-(2-((1-(5-Fluoropyridin-3-yl)ethyl)amino)thieno[3,2-d]pyrimidine-4-carbonyl)azetidin-3-yl)isonicotinamide], for which the IC50 was greater than 500 nM in test [1], 10 to 50 nM in test [2], 50 to 100 nM in test [3] and greater than 500 nM in test [4]. For the same molecule, in test [2], the Ratio is 6.42.
`C[C@H](Nc1nc(C(=O)N2CC(NC(=O)C3(C)CC3)C2)c2sccc2n1)c1cncc(F)c1` [Example Z603, (S)—N-(1-(2-((1-(5-Fluoropyridin-3-yl)ethyl)amino)thieno[3,2-d]pyrimidine-4-carbonyl)azetidin-3-yl)-1-methylcyclopropane-1-carboxamide]: the IC50 in test [1] is 100 to 500 nM; in test [2], less than 10 nM; in test [3] it was less than 10 nM; in test [4], greater than 500 nM. For the same molecule, the Ratio in test [2] turned out to be 1.00.
On to `C[C@H](Nc1nc(C(=O)N2CC(NC(=O)NC3CCC3)C2)c2sccc2n1)c1cncc(F)c1` [Example Z623, (S)-1-Cyclobutyl-3-(1-(2-((1-(5-fluoropyridin-3-yl)ethyl)amino)thieno[3,2-d]pyrimidine-4-carbonyl)azetidin-3-yl)urea], for which the IC50 in test [1] is 100 to 500 nM; in test [2], less than 10 nM; in test [3], less than 10 nM; in test [4], greater than 500 nM. Besides, the Ratio in test [2] worked out at 0.95.
As for `C[C@H](Nc1nc(C(=O)N2CC(NC(=O)C3(C(F)(F)F)CC3)C2)c2sccc2n1)c1cncc(F)c1` [Example Z609, (S)—N-(1-(2-((1-(5-Fluoropyridin-3-yl)ethyl)amino)thieno[3,2-d]pyrimidine-4-carbonyl)azetidin-3-yl)-1-(trifluoromethyl)cyclopropane-1-carboxamide], the half-inhibitory concentration (IC50) was 100 to 500 nM in test [1], less than 10 nM in test [2], less than 10 nM in test [3] and greater than 500 nM in test [4]. Besides, the Ratio in test [2] was 0.98.
Consider `C[C@H](Nc1nc(C(=O)N2CC(NC(=O)CCC3CCOCC3)C2)c2sccc2n1)c1cncc(F)c1` [Example Z612, (S)—N-(1-(2-((1-(5-Fluoropyridin-3-yl)ethyl)amino)thieno[3,2-d]pyrimidine-4-carbonyl)azetidin-3-yl)-3-(tetrahydro-2H-pyran-4-yl)propanamide], for which the IC50 in test [1] is 100 to 500 nM; in test [2] it was 10 to 50 nM; in test [3], 10 to 50 nM; in test [4] it was greater than 500 nM. Besides, the Ratio in test [2] is reported as 1.02.
